This passage reports Activity and inhibition results from ChEMBL document CHEMBL4304775, “Identification and characterization of a novel chemotype for human TLR8 inhibitors” (Eur J Med Chem, 2019).

Format in all cases: cell-based
Data set [1] in a line: Cytotoxicity against human HEK-Blue cells transfected with hTLR8 assessed as reduction in cell viability at 50 uM after 24 hrs by MTT assay. (In general: Tetrazolium assays rely on reduction of a dye to a coloured formazan, in cell work by metabolically active cells.)
The target of data set [2] is T1, Toll-like receptor 8 (Homo sapiens) (UniProt Q9NR97).
T1 sequence (whole entry): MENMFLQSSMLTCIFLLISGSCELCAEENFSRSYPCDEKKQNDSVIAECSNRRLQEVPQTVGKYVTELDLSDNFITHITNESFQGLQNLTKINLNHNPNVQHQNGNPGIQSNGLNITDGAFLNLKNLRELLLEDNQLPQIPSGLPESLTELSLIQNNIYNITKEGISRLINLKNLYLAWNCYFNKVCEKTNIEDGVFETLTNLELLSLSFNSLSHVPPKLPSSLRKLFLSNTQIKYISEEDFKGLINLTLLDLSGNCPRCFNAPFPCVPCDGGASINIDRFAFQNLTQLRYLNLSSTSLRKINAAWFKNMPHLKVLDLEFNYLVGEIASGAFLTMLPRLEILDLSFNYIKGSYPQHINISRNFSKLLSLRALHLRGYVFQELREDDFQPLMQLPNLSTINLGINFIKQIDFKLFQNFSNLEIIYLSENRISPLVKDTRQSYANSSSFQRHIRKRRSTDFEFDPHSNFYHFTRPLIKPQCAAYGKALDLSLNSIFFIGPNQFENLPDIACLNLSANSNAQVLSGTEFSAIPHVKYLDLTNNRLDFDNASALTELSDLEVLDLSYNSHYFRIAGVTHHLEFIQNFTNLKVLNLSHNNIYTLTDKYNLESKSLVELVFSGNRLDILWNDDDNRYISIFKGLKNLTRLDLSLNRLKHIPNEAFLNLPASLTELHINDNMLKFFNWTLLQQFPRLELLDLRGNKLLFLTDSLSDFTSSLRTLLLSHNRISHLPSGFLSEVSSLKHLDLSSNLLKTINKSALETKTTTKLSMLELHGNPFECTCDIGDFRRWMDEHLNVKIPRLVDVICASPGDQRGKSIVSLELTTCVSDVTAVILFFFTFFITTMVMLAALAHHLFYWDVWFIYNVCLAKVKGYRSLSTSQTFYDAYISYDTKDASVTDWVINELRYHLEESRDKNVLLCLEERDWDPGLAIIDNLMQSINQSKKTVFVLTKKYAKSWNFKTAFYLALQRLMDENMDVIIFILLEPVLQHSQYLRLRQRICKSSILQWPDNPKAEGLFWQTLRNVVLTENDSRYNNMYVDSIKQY
Description: Antagonist activity at human TLR8 expressed in HEK-Blue cells assessed as inhibition of CL075-induced NF-kappaB activation incubated for 1 hr followed by CL075-stimulation and measured after 24 hrs by quanti-blue SEAP assay.

In data set [3] the test system is THP-1. Description: Cytotoxicity against human THP1 cells assessed as reduction in cell viability at 50 uM after 24 hrs by MTT assay. As to conditions: thp-1, 24 h.
The test system of data set [4] is THP-1. Description: Cytotoxicity against human THP1 cells at 25 to 100 uM after 24 hrs by MTT assay. As to conditions: thp-1, 24 h.

In the case of `FC(F)(F)c1cc(-c2ccco2)nc(NCc2cccs2)n1`, the Activity entry (in data set [1]; with THP-1 [3]) was “Toxic” each time. Also, the inhibition entry in data set [2] was “Dose-dependent effect”.

For the compound `CCCCNc1nc(-c2cccs2)cc(C(F)(F)F)n1`, the Activity result with THP-1 [4] is given as “Non-Toxic”.

As to `FC(F)(F)c1cc(-c2ccccc2)nc(NCc2cccs2)n1`, the Activity entry in the data set with THP-1 [4] was “Non-Toxic”.
